The values below come from US20150359913A1, “TETRAZINES/TRANS-CYCLOOCTENES IN SOLID PHASE SYNTHESIS OF LABELED PEPTIDES” (MEMORIAL SLOAN-KETTERING CANCER CENTER, priority 2013, published 2015).

Series [1] has as its system subcutaneous SW1222 xenografts. Briefly: pre-targeted biodistribution: A33-TCO, 24 h later ^64Cu-Tz-Bn-NOTA. The class given is in vivo, mice. Particulars: for Biodistribution: Blood / Biodistribution: Bone / Biodistribution: Feces / Biodistribution: Heart / Biodistribution: Kidney / Biodistribution: Large intestine / Biodistribution: Liver / Biodistribution: Lung / Biodistribution: Muscle / Biodistribution: Skin / Biodistribution: Small intestine / Biodistribution: Spleen / Biodistribution: Stomach / Biodistribution: Tumor: A33-TCO (100 μg) 24 h before ^64Cu-Tz-Bn-NOTA; for uptake in all other tissues (not tumor, feces): generally. As for the experimental part:
Values are represented as % ID/g±SD. Mice (n=4) bearing subcutaneous SW1222 xenografts were administered huA33-TCO (100 μg) via tail vein injection. After 24 hours the same mice were administered ^64Cu-Tz-Bn-NOTA (0.55-0.75 MBq [15-20 μCi] via tail vein injection (t=0).
Following the synthesis and characterization of the components of the system, in vivo pre-targeted biodistribution and PET imaging experiments were performed. For the pre-targeted biodistribution experiments, mice bearing SW1222 xenografts were administered huA33-TCO (100 μg) via tail vein injection. After a 24 h interval, the mice were administered ^64Cu-Tz-NOTA via tail vein injection. The data reveal rapid accumulation and retention of activity in the tumor, with 4.1±0.3% ID/g at 1 h p.i and 4.2±0.3% ID/g at 12 h p.i. (Table 1). The compound is excreted through the feces, with high levels of activity at 1 h p.i. dropping to 0.9±0.1% ID/g at 12 h, and the amount of uptake in other tissues remains very low, generally less than 0.3% ID/g.
For the pre-targeted biodistribution experiments, mice bearing subcutaneous SW1222 xenografts were administered A33-TCO ([…]) via tail vein injection. […] The data reveal rapid accumulation and retention of radioactivity in the tumor, with 4.1±0.3 percent injected dose per gram (% ID/g) at 1 h after injection, 4.2±0.8% ID/g at 12 h, and 4.0±0.9% ID/g at 24 h (Table 1). The compound is excreted through the feces, with high levels of activity at 1 h after injection dropping to 2.5±0.1% ID/g at 12 h. The amount of uptake in all other tissues remains low, generally less than 1% ID/g.
The specificity of antibodies have made immunoconjugates promising vectors for the delivery of radioisotopes to cancer cells; however, their long pharmacologic half-lives necessitate the use of radioisotopes with long physical half-lives, a combination that leads to high radiation doses to patients. Therefore, the development of targeting modalities that harness the advantages of antibodies without their pharmacokinetic limitations is desirable. To this end, we report the development of a methodology for pre-targeted PET imaging based on the bioorthogonal Diels-Alder click reaction between tetrazine and transcyclooctene. A proof-of-concept system based on the A33 antibody, SW1222 colorectal cancer cells, and ^64Cu was used. The huA33 antibody was covalently modified with transcyclooctene, and a NOTA-modified tetrazine was synthesized and radiolabeled with ^64Cu. Pre-targeted in vivo biodistribution and PET imaging experiments were performed with athymic nude mice bearing A33 antigen-expressing, SW1222 colorectal cancer xenografts. The huA33 antibody was modified with transcyclooctene to produce a conjugate with high immunoreactivity, and the ^64Cu-NOTA-labeled tetrazine ligand was synthesized with greater than 99% purity and a specific activity of 9-10 MBq/mg. For in vivo experiments, mice bearing SW1222 xenografts were injected with transcyclooctene-modified A33; after allowing 24 h for accumulation of the antibody in the tumor, the mice were injected with 64Cu-NOTA-labeled tetrazine for PET imaging and biodistribution experiments. At 12 h after injection, the retention of uptake in the tumor ([…] percent injected dose per gram), coupled with the fecal excretion of excess radioligand, produced images with high tumor-to-background ratios. […] Conclusion: The high quality of the images produced by this pretargeting approach, combined with the ability of the methodology to dramatically reduce non-target radiation doses to patients, marks this system as a strong candidate for clinical translation.

Series [2] is described as follows: in vitro stability of the radioligand in human serum at 37° C., HPLC. It counts as in vitro ADME. As for the experimental part: (§1) The stability of the radioligand was assayed in vitro by incubation in human serum at 37° C. and subsequent HPLC analysis. The ^64Cu-Tz-Bn-NOTA remained relatively stable after 1 h, with 93.0%±2.5% intact. […] In addition, in vivo stability experiments were performed, and these produced similar results, although some acceleration in decomposition can be noted: 77%±3% of the ^64Cu-Tz-Bn-NOTA is intact in the blood after 60 min, followed by 47%±2% after 2 h and 22%±3% after 6 h. Although greater stability may be preferable, the speed of the cycloaddition reaction and the rapid pharmacokinetics of the radioligand led us to believe it unlikely that poor serum stability at later time points would limit the system.

Series [3] is described as follows: in vivo stability of the radioligand in the blood. As for the experimental part: as §1
Series [4] addresses A33 antigen (human) (UniProt Q99795). In words: immunoreactivity of the TCO-modified antibody (assay not described in this sentence).
For series [5] the target is unchanged. Briefly: immunoreactivity assay of the radiolabelled antibody (cells not given).
For series [6] the target is unchanged. In words: immunoreactivity assay with A33 antigen-expressing SW1222 human colorectal cancer cells, radiolabelled antibody.

Chain of UniProt Q99795 (Q99795 22-319): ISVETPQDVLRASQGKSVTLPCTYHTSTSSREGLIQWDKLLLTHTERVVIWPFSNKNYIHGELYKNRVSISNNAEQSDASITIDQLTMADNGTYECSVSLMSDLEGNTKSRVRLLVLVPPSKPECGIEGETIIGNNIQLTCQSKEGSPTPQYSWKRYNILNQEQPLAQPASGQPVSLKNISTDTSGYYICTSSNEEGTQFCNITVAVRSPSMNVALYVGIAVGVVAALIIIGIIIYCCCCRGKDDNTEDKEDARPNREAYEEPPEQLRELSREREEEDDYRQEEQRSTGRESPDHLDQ

On to `O=C([O-])CN1CCN(CC(=O)[O-])CC(Cc2ccc(NC(=O)CCCC(=O)NCc3ccc(-c4nncnn4)cc3)cc2)N(CC(=O)[O-])CC1.[64Cu+2]` (stereo not drawn) [^64Cu-Tz-Bn-NOTA], for which, in series [1] (1 h), the “Biodistribution: Blood” value came to 3.5 ± 0.6 % ID/g, the “Biodistribution: Bone” value is 0.3 ± 0.2 % ID/g, the “Biodistribution: Feces” value was 11.9 ± 4.4 % ID/g and the “Biodistribution: Heart” value came to 1.1 ± 0.2 % ID/g. Further, in series [1] (1 h), the “Biodistribution: Kidney” value is 1.3 ± 0.1 % ID/g, the “Biodistribution: Large intestine” value amounted to 0.5 ± 0.0 % ID/g, the “Biodistribution: Liver” value was 2.2 ± 0.3 % ID/g and the “Biodistribution: Lung” value is on record as 1.6 ± 0.5 % ID/g. In series [1] (1 h), the “Biodistribution: Muscle” value is 0.2 ± 0.0 % ID/g, the “Biodistribution: Skin” value was 0.3 ± 0.1 % ID/g, the “Biodistribution: Small intestine” value stood at 0.0 ± 0.0 % ID/g and the “Biodistribution: Spleen” value worked out at 0.6 ± 0.1 % ID/g. Further, in series [1] (1 h), the “Biodistribution: Stomach” value was 0.5 ± 0.1 % ID/g and the “Biodistribution: Tumor” value is on record as 4.1±0.3 % ID/g. Also, the “Biodistribution: Tumor” value in series [1] (1 h, listed as 64Cu-Tz-NOTA) stood at 4.1±0.3 % ID/g. In series [1] (4 h), the “Biodistribution: Blood” value worked out at 2.6 ± 0.8 % ID/g, the “Biodistribution: Bone” value is given as 0.3 ± 0.2 % ID/g, the “Biodistribution: Feces” value was 8.8 ± 3.4 % ID/g and the “Biodistribution: Heart” value is given as 0.9 ± 0.3 % ID/g. Moreover, in series [1] (4 h), the “Biodistribution: Kidney” value is 0.9 ± 0.3 % ID/g, the “Biodistribution: Large intestine” value is recorded as 3.1 ± 1.1 % ID/g, the “Biodistribution: Liver” value is 1.3 ± 0.3 % ID/g and the “Biodistribution: Lung” value is 1.6 ± 0.4 % ID/g. Moreover, in series [1] (4 h), the “Biodistribution: Muscle” value worked out at 0.1 ± 0.0 % ID/g, the “Biodistribution: Skin” value is 0.3 ± 0.1 % ID/g, the “Biodistribution: Small intestine” value was determined as 0.4 ± 0.1 % ID/g and the “Biodistribution: Spleen” value was found to be 0.5 ± 0.2 % ID/g. For the same compound, in series [1] (4 h), the “Biodistribution: Stomach” value turned out to be 0.3 ± 0.1 % ID/g and the “Biodistribution: Tumor” value is on record as 4.1 ± 0.6 % ID/g. In addition, in series [1] (12 h), the “Biodistribution: Blood” value came out at 2.3 ± 0.4 % ID/g, the “Biodistribution: Bone” value was determined as 0.4 ± 0.1 % ID/g, the “Biodistribution: Feces” value came to 2.5±0.1 % ID/g and the “Biodistribution: Heart” value is listed as 0.9 ± 0.1 % ID/g. In series [1] (12 h), the “Biodistribution: Kidney” value was 0.9 ± 0.3 % ID/g, the “Biodistribution: Large intestine” value is recorded as 2.3 ± 1.0 % ID/g, the “Biodistribution: Liver” value worked out at 0.9 ± 0.2 % ID/g and the “Biodistribution: Lung” value is reported as 1.1 ± 0.4 % ID/g. Besides, in series [1] (12 h), the “Biodistribution: Muscle” value amounted to 0.2 ± 0.0 % ID/g, the “Biodistribution: Skin” value was 0.4 ± 0.1 % ID/g, the “Biodistribution: Small intestine” value is 0.8 ± 0.5 % ID/g and the “Biodistribution: Spleen” value is given as 0.6 ± 0.3 % ID/g. Moreover, in series [1] (12 h), the “Biodistribution: Stomach” value is 0.5 ± 0.6 % ID/g and the “Biodistribution: Tumor” value is 4.2±0.8 % ID/g. Also, in series [1] (12 h, listed as 64Cu-NOTA-labeled tetrazine), the “Biodistribution: Tumor” value is on record as 4.1±0.3 % ID/g. Moreover, in series [1] (12 h, listed as 64Cu-Tz-NOTA), the “Biodistribution: Feces” value turned out to be 0.9±0.1 % ID/g and the “Biodistribution: Tumor” value was found to be 4.2±0.3 % ID/g. For the same compound, the “tumor-to-muscle activity concentration ratio” value in series [1] (12 h, pre-targeting, A33-TCO 24 h before radioligand) is recorded as 26.6±6.6. Besides, in series [1] (24 h), the “Biodistribution: Blood” value turned out to be 2.1 ± 0.5 % ID/g, the “Biodistribution: Bone” value is recorded as 0.3 ± 0.1 % ID/g, the “Biodistribution: Feces” value was 1.4 ± 0.5 % ID/g and the “Biodistribution: Heart” value came to 0.8 ± 0.2 % ID/g. Moreover, in series [1] (24 h), the “Biodistribution: Kidney” value stood at 0.7 ± 0.2 % ID/g, the “Biodistribution: Large intestine” value is 1.1 ± 0.4 % ID/g, the “Biodistribution: Liver” value is 1.1 ± 0.2 % ID/g and the “Biodistribution: Lung” value worked out at 1.0 ± 0.3 % ID/g. In series [1] (24 h), the “Biodistribution: Muscle” value stood at 0.1 ± 0.0 % ID/g, the “Biodistribution: Skin” value stood at 0.5 ± 0.2 % ID/g, the “Biodistribution: Small intestine” value was 0.3 ± 0.0 % ID/g and the “Biodistribution: Spleen” value stood at 0.4 ± 0.1 % ID/g. In series [1] (24 h), the “Biodistribution: Stomach” value is on record as 0.2 ± 0.0 % ID/g and the “Biodistribution: Tumor” value is given as 4.0±0.9 % ID/g. Also, the “uptake in all other tissues (not tumor, feces)” value in series [1] (pre-targeting) is recorded as “less than 1 % ID/g”. Moreover, the “uptake in all other tissues (not tumor, feces)” value in series [1] (pre-targeting, listed as 64Cu-Tz-NOTA) is given as “less than 0.3 % ID/g”. Also, the radioligand intact in series [2] (1 h) is given as 93.0%±2.5%. In addition, the radioligand intact in series [2] (12 h) is on record as 31.6%±6.1%. In addition, the “radioligand intact in the blood” value in series [3] (60 min) is recorded as 77%±3%. Moreover, the “radioligand intact in the blood” value in series [3] (2 h) is 47%±2%. For the same compound, the “radioligand intact in the blood” value in series [3] (6 h) is on record as 22%±3%.
Consider “TCO-modified huA33 (huA33-TCO) (antibody)”, for which the immunoreactivity in the series with A33 antigen (human) [4] was above 95%.
As to “^64Cu-NOTA-A33 (A33-TCO reacted with ^64Cu-Tz-Bn-NOTA) (antibody)”, the immunoreactivity with A33 antigen (human) [5] is above 95%; with A33 antigen (human) [6], 95.6%.
In the series with A33 antigen (human) [5], ^89Zr-DFO-A33 (antibody) returned an immunoreactivity of 92%.
